Reference: the NIST ThermoML archive (doi:10.1016/j.jct.2016.09.031)
± gives the expanded uncertainty stated by the source.

Legend:
[1] = molar heat capacity at constant pressure; conditions: 298.15 K; 101.33 kPa; Liquid; Flow calorimetry
[2] = molar heat capacity at constant pressure; mn = molality of the nth substance listed, in mol/kg; conditions: 298.15 K, 100 kPa, Liquid, Flow calorimetry

With O [water] the “molar heat capacity at constant pressure” value [1] was 75.11 ± 1.5 J/K/mol.
With O [water] + [Cl-].[Cs+] the “molar heat capacity at constant pressure” value ([2]; m2 = 0) was 75.11 ± 1.5 J/K/mol.
For O [water] + [Cl-].[Rb+], the “molar heat capacity at constant pressure” value ([2]; m2 = 0) was 75.11 ± 1.5 J/K/mol.
In the case of [Cl-].[Na+] [sodium chloride] + O, the “molar heat capacity at constant pressure” value ([2]; m1 = 2.05) is reported as 72.32 ± 1.5 J/K/mol.
For [Cl-].[Cs+] [cesium chloride] + O, the “molar heat capacity at constant pressure” value ([2]; m1 = 0.2644) was 74.19 ± 1.5 J/K/mol, the “molar heat capacity at constant pressure” value ([2]; m1 = 0.5336) was 73.52 ± 1.5 J/K/mol and the “molar heat capacity at constant pressure” value ([2]; m1 = 1.066) was 72.48 ± 1.5 J/K/mol. The “molar heat capacity at constant pressure” value ([2]; m1 = 2.018) was 70.13 ± 1.4 J/K/mol, the “molar heat capacity at constant pressure” value ([2]; m1 = 3.02) was 68.3 ± 1.4 J/K/mol and the “molar heat capacity at constant pressure” value ([2]; m1 = 3.877) was 67.71 ± 1.4 J/K/mol. For the same compound, the “molar heat capacity at constant pressure” value ([2]; m1 = 5.674) was 66.01 ± 1.3 J/K/mol and the “molar heat capacity at constant pressure” value ([2]; m1 = 6.822) was 65.63 ± 1.3 J/K/mol.
With [Cl-].[Rb+] [rubidium chloride] + O the “molar heat capacity at constant pressure” value ([2]; m1 = 0.4938) was 73.89 ± 1.5 J/K/mol, the “molar heat capacity at constant pressure” value ([2]; m1 = 0.8703) was 73.2 ± 1.5 J/K/mol and the “molar heat capacity at constant pressure” value ([2]; m1 = 1.515) was 71.66 ± 1.4 J/K/mol. The “molar heat capacity at constant pressure” value ([2]; m1 = 2.41) was 69.91 ± 1.4 J/K/mol, the “molar heat capacity at constant pressure” value ([2]; m1 = 3.388) was 68.46 ± 1.4 J/K/mol and the “molar heat capacity at constant pressure” value ([2]; m1 = 4.213) was 67.56 ± 1.4 J/K/mol. The “molar heat capacity at constant pressure” value ([2]; m1 = 4.888) was 67.01 ± 1.3 J/K/mol and the “molar heat capacity at constant pressure” value ([2]; m1 = 5.84) was 66.18 ± 1.3 J/K/mol.
